From publication PMC3646888 (PLoS ONE, 2013)

Columns and labels:
Format in all cases: in vitro ADME
CYP2C11 = target: T1, CYP2C11 (Rattus norvegicus, UniProt P08683); assay: Fluorescence-based CYP assay, recombinant CYP2C11, substrate DBF
T1 sequence (P08683 1-500): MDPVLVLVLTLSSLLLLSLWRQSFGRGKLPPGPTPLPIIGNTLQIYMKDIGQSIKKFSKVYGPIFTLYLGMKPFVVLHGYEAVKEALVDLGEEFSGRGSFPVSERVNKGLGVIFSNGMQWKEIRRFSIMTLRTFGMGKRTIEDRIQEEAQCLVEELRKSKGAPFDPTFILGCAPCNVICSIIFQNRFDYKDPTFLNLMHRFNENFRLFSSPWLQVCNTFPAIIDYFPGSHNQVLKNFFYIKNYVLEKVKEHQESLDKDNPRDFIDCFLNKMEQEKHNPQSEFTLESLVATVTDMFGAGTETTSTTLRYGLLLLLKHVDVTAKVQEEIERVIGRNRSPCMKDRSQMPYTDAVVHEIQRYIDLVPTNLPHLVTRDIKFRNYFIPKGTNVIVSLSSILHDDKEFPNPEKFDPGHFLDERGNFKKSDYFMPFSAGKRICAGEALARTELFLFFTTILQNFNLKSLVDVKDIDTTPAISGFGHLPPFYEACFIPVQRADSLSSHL
Method: (§1) These assays were performed by methods similar to those described by VanAlstine and Hough, Stresser et al., Wulff et al., Henderson et al., and Crespi et al., with minor modifications. All incubations were performed in a final volume of 200 µL of 50 mM potassium phosphate buffer at pH 7.4 containing 1% acetonitrile. CYP inhibitor studies were performed according to the parameters of Table 1. Substrate concentrations were chosen to be near known Km values. As described in the references cited, two different NADPH regenerating systems were used depending on the substrates used (Table 1). Inhibitors were added to either “low” NADPH-regenerating system (final concentration of 8.1 µM NADP^+, 0.4 mM glucose-6-phosphate, 0.4 mM magnesium chloride, 0.2 U/mL glucose-6-phosphate dehydrogenase) or to “high” NADPH-regenerating system (final concentration of 1.3 mM NADP^+, 3.3 mM glucose-6-phosphate, 3.3 mM magnesium chloride, 0.4 U/mL glucose-6-phosphate dehydrogenase) in a total of 0.1 mL buffer. […] For assays utilizing “low” regenerating systems, product formation was monitored continuously by a Victor3 1420 Multilabel Plate Counter at the designated wavelengths (Table 1). […] Product formation was then measured at the designated wavelengths (Table 1). […]

CYP2B1 = target: T2, CYP2B1 (Rattus norvegicus, UniProt P00176); assay: Fluorescence-based CYP assay, recombinant CYP2B1, substrate EFC
T2 sequence (P00176 1-491): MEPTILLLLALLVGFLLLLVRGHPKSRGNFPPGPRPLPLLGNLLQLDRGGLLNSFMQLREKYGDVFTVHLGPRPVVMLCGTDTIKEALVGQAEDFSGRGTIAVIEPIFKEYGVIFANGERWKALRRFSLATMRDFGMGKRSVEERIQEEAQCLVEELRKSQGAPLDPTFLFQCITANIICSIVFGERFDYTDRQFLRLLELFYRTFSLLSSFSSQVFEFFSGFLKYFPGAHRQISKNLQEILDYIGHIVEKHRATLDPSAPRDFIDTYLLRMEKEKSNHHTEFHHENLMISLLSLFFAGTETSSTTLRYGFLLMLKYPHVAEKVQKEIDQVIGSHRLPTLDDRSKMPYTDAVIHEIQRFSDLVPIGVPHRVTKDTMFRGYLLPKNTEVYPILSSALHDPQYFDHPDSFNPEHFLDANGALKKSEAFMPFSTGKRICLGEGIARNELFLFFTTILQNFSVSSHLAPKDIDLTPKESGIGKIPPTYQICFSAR
Method: as §1

CYP2C19 = CYP2C19 (Homo sapiens, UniProt P33261); assay: Fluorescence-based CYP assay, recombinant CYP2C19, substrate DBF
CYP2C19, sequence (P33261 whole entry): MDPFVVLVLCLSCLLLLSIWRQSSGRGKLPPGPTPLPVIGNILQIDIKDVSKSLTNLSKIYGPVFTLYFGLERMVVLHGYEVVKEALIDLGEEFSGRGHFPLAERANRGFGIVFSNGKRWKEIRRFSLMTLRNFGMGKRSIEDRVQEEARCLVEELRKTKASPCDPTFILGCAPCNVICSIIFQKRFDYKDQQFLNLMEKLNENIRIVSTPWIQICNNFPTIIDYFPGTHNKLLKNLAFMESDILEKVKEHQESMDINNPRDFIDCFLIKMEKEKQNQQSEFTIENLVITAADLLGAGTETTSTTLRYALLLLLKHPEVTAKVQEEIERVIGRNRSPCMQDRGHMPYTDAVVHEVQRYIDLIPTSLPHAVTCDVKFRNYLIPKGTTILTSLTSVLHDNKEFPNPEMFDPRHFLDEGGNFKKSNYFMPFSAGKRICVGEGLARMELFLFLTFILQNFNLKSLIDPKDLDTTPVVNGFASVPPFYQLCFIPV
Method: as §1

CYP2B6 = target: T3, CYP2B6 (Homo sapiens, UniProt P20813); assay: Fluorescence-based CYP assay, recombinant CYP2B6, substrate EFC
T3 sequence (P20813 1-491): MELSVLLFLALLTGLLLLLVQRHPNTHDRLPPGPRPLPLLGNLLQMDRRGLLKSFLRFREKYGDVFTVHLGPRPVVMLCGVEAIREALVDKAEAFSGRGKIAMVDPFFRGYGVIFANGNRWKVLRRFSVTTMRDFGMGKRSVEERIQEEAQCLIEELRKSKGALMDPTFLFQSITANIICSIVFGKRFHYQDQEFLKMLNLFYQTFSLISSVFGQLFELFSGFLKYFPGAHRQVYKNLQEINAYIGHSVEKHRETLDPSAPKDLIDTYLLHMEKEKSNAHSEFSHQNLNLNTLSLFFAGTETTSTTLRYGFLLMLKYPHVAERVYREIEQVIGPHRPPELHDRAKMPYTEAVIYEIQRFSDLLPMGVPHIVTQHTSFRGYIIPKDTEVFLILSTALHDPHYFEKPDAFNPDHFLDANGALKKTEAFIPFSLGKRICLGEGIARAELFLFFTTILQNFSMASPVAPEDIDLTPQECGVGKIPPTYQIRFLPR
Method: as §1

Structure (SMILES) | Inhibition of CYP2C11 (in words) (CYP2C11; positive control) | Inhibition of CYP2B1 (in words) (CYP2B1; positive control) | Inhibition of CYP2C19 (in words) (CYP2C19; recombinant enzyme) | Inhibition of CYP2B6 (in words) (CYP2B6; positive control) | IC50 (CYP2C11) | IC50 (CYP2B1) | IC50 (CYP2C19) | IC50 (CYP2B6)
Clc1ccccc1C(c1ccccc1)(c1ccccc1)n1ccnc1 [Clotrimazole] | potent inhibitor | potent inhibitor | potent inhibitor | potent inhibitor |  |  |  | 
Clc1ccccc1C(c1ccccc1)(c1ccccc1)n1cccn1 [TRAM-34, 1-[(2-chlorophenyl)diphenylmethyl]-1H-pyrazole] |  |  |  |  | 12600 nM | 3000 nM | 1800 nM | 900 nM
